Measured values from ChEMBL document CHEMBL5512690, “Identification and Validation of PKR as a Direct Target for the Novel Sulfonamide-Substituted Tetrahydroquinoline Nonselective Inhibitor of the NLRP3 Inflammasome” (J Med Chem, 2024).

What was measured:
[1] = Cytotoxicity against human differentiated THP-M cells derived PMA induced THP-1 cells measured after 72 hrs by MTT assay
[2] = target: NACHT, LRR and PYD domains-containing protein 3 (Homo sapiens, UniProt Q96P20)
Chain of NACHT, LRR and PYD domains-containing protein 3 (Q96P20 whole entry, the tested form may be a part): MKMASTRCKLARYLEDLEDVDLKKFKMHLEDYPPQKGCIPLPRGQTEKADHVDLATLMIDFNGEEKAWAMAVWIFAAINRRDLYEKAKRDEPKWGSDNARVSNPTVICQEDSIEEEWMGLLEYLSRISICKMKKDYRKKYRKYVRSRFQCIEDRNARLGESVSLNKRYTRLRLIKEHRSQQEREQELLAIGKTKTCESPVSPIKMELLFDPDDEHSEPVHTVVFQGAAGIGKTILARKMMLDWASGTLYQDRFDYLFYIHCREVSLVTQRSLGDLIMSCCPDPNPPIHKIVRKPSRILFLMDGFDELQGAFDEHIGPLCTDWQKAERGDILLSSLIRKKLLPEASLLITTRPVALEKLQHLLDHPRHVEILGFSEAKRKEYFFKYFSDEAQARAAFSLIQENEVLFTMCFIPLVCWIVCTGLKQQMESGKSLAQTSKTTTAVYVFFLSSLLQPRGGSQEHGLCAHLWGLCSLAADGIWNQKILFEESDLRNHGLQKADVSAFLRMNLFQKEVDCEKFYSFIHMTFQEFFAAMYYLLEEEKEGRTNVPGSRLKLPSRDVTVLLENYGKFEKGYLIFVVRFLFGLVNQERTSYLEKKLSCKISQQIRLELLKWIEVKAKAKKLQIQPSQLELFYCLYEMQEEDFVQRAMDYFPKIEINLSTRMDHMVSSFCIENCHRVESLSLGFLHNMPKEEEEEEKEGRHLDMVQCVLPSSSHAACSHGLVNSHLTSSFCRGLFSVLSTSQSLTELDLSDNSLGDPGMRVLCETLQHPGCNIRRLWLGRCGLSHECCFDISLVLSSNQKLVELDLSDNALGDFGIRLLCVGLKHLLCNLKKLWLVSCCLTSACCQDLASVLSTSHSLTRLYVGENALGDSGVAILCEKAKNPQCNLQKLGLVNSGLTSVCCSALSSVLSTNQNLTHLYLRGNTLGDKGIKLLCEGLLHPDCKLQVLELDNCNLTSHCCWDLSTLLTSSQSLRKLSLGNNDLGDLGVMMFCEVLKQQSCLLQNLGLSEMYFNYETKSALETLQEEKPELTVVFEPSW
Description: Inhibition of NLRP3 inflammasome activation in LPS primed human differentiated THP-M cells derived PMA induced THP-1 cells assessed as inhibition of IL-1 beta level preincubated with compound for 24 hrs followed by LPS stimulation for 3 hrs and further incubated with ATP for 1 hr by ELISA method

| SMILES | CC50 [1] [µM] | IC50 [2] [µM] |
| --- | --- | --- |
| CS(=O)(=O)N1CCCc2ccc(NS(=O)(=O)c3ccccn3)cc21 | > 100 |  |
| CC(=O)Nc1ccc(S(=O)(=O)Nc2ccc3c(c2)N(S(C)(=O)=O)CCC3)cc1 | > 100 |  |
| CS(=O)(=O)N1CCCc2ccc(NS(=O)(=O)c3cccc(F)c3)cc21 | > 100 |  |
| CS(=O)(=O)N1CCCc2ccc(NS(=O)(=O)c3ccc(F)cc3)cc21 | > 100 |  |
| CCCCS(=O)(=O)Nc1ccc2c(c1)N(S(C)(=O)=O)CCC2 | > 100 |  |
| CS(=O)(=O)N1CCCc2ccc(NS(=O)(=O)c3ccc(C(F)(F)F)cc3)cc21 | > 100 |  |
| COC(=O)c1ccsc1S(=O)(=O)Nc1ccc2c(c1)N(S(C)(=O)=O)CCC2 | > 100 |  |
| CS(=O)(=O)N1CCCc2ccc(NS(=O)(=O)c3cccc4ccccc34)cc21 | > 100 |  |
| O=C(O)c1ccc(/C=C2\SC(=S)N(Cc3cccc(C(F)(F)F)c3)C2=O)cc1 | > 100 | 5.33 |
| CS(=O)(=O)N1CCCc2ccc(NS(=O)(=O)c3cc(C(F)(F)F)cc(C(F)(F)F)c3)cc21 | > 100 |  |
| CS(=O)(=O)Nc1ccc2c(c1)N(S(C)(=O)=O)CCC2 | > 100 |  |
| CCCS(=O)(=O)Nc1ccc2c(c1)N(S(C)(=O)=O)CCC2 | > 100 |  |
| Cc1ccc(S(=O)(=O)Nc2ccc3c(c2)N(S(C)(=O)=O)CCC3)cc1 | > 100 |  |
| CS(=O)(=O)N1CCCc2ccc(NS(=O)(=O)c3ccc4ccccc4c3)cc21 | > 100 |  |
| CC(C)(C)c1ccc(S(=O)(=O)Nc2ccc3c(c2)N(S(C)(=O)=O)CCC3)cc1 | > 100 |  |
| CS(=O)(=O)N1CCCc2ccc(NS(=O)(=O)c3ccc(Br)cc3)cc21 | > 100 |  |
| CS(=O)(=O)N1CCCc2ccc(NS(=O)(=O)c3ccc(Cl)cc3)cc21 | > 100 |  |
| CS(=O)(=O)N1CCCc2ccc(NS(=O)(=O)c3ccc([N+](=O)[O-])cc3)cc21 | > 100 |  |
| COC(=O)c1ccc(S(=O)(=O)Nc2ccc3c(c2)N(S(C)(=O)=O)CCC3)cc1 | > 100 |  |
| CS(=O)(=O)N1CCCc2ccc(NS(=O)(=O)c3cccs3)cc21 | > 100 |  |
| CS(=O)(=O)N1CCCc2ccc(NS(=O)(=O)c3ccccc3)cc21 | > 100 |  |
| CS(=O)(=O)N1CCCc2ccc(NS(=O)(=O)c3cccc4cccnc34)cc21 | > 100 |  |
| CS(=O)(=O)N1CCCc2ccc(NS(=O)(=O)c3ccccc3[N+](=O)[O-])cc21 | > 100 |  |
| CC(=O)c1ccc(S(=O)(=O)Nc2ccc3c(c2)N(S(C)(=O)=O)CCC3)cc1 | > 100 |  |
| CCS(=O)(=O)Nc1ccc2c(c1)N(S(C)(=O)=O)CCC2 | > 100 |  |
| CS(=O)(=O)N1CCCc2ccc(NS(=O)(=O)c3ccccc3F)cc21 | > 100 |  |
| CS(=O)(=O)N1CCCc2ccc(NS(=O)(=O)c3ccc(C#N)cc3)cc21 | > 100 |  |
| CS(=O)(=O)N1CCCc2ccc(NS(=O)(=O)Cc3ccccc3)cc21 | > 100 |  |
| COc1ccc(S(=O)(=O)Nc2ccc3c(c2)N(S(C)(=O)=O)CCC3)cc1 | > 100 |  |
